Results as given in US20080064689A1, “3-[4-(6-Pyridin-3-Yl)-3-Phenyl] -5-(1H-1,2,3-Triazol-1-Ylmethyl)-1,3-Oxazolidin-2-Ones as Antibacterial Agents” (AstraZeneca AB, priority 2004, published 2008).
Counter-ions that a name gives are not always drawn.

Structure (SMILES) | melting point
CN(CC(=O)O)C[C@@H]1CC(c2ccc(-c3ccc(N4C[C@H](Cn5ccnn5)OC4=O)cc3F)cn2)=NO1 [Example 19, N-{[(5S)-3-(5-{2-Fluoro-4-[(5R)-2-oxo-5-(1H-1,2,3-triazol-1-ylmethyl)-1,3-oxazolidin-3-yl]phenyl}pyridin-2-yl)-4,5-dihydroisoxazol-5-yl]methyl}-N-methylglycine] | 212 to 218 °C
O=C1O[C@@H](Cn2ccnn2)CN1c1ccc(-c2ccc(C3=NO[C@H](CN4CCCC4)C3)nc2)c(F)c1 (as salt: hydrochloride) [Example 12] | 260 to 263 °C
CN(CC(=O)OC(C)(C)C)C[C@@H]1CC(c2ccc(-c3ccc(N4C[C@H](Cn5ccnn5)OC4=O)cc3F)cn2)=NO1 [Example 18, tert-Butyl N-{[(5S)-3-(5-{2-fluoro-4-[(5R)-2-oxo-5-(1H-1,2,3-triazol-1-ylmethyl)-1,3-oxazolidin-3-yl]phenyl}pyridin-2-yl)-4,5-dihydroisoxazol-5-yl]methyl}-N-methylglycinate] | 180 °C
Cl.O=C1O[C@@H](Cn2ccnn2)CN1c1ccc(-c2ccc(C3=NO[C@@H](CN4CCOCC4)C3)nc2)c(F)c1 | 239 to 245 °C
O=C1O[C@@H](Cn2ccnn2)CN1c1ccc(-c2ccc(C3=NO[C@H](CN4CCS(=O)(=O)CC4)C3)nc2)c(F)c1 [Example 9, (5R)-3-[4-(6-{(5S)-5-[(1,1-Dioxidothiomorpholin-4-yl)methyl]-4,5-dihydroisoxazol-3-yl}pyridin-3-yl)-3-fluorophenyl]-5-(1H-1,2,3-triazol-1-ylmethyl)-1,3-oxazolidin-2-one] | 200 to 203 °C
CN1CCN(C[C@@H]2CC(c3ccc(-c4ccc(N5C[C@H](Cn6ccnn6)OC5=O)cc4F)cn3)=NO2)CC1 [Example 4, (5R)-3-[3-Fluoro-4-(6-{(5S)-5-[(4-methylpiperazin-1-yl)methyl]-4,5-dihydroisoxazol-3-yl}pyridin-3-yl)phenyl]-5-(1H-1,2,3-triazol-1-ylmethyl)-1,3-oxazolidin-2-one] | 218 °C
CCCCNC[C@@H]1CC(c2ccc(-c3ccc(N4C[C@H](Cn5ccnn5)OC4=O)cc3F)cn2)=NO1 [Example 6, (5R)-3-[4-(6-{(5S)-5-[(Butylamino)methyl]-4,5-dihydroisoxazol-3-yl}pyridin-3-yl)-3-fluorophenyl]-5-(1H-1,2,3-triazol-1-ylmethyl)-1,3-oxazolidin-2-one] | 230 °C
CC(C)(C)OC(=O)NC[C@@H]1CC(c2ccc(-c3ccc(N4C[C@H](Cn5ccnn5)OC4=O)cc3F)cn2)=NO1 [Example 15, tert-Butyl {[(5S)-3-(5-{2-fluoro-4-[(5R)-2-oxo-5-(1H-1,2,3-triazol-1-ylmethyl)-1,3-oxazolidin-3-yl]phenyl}pyridin-2-yl)-4,5-dihydroisoxazol-5-yl]methyl}carbamate] | 228 to 230 °C
O=C(NC[C@@H]1CC(c2ccc(-c3ccc(N4C[C@H](Cn5ccnn5)OC4=O)cc3F)cn2)=NO1)[C@@H]1CCCN1 (as salt: hydrochloride) [Example 20, N-{[(5S)-3-(5-{2-Fluoro-4-[(5R)-2-oxo-5-(1H-1,2,3-triazol-1-ylmethyl)-1,3-oxazolidin-3-yl]phenyl}pyridin-2-yl)-4,5-dihydroisoxazol-5-yl]methyl}-L-prolinamide hydrochloride] | 246 to 249 °C
O=C1O[C@@H](Cn2ccnn2)CN1c1ccc(-c2ccc(C3=NO[C@H](CN4CCSCC4)C3)nc2)c(F)c1 [Example 7, (5R)-3-(3-Fluoro-4-{6-[(5S)-5-(thiomorpholin-4-ylmethyl)-4,5-dihydroisoxazol-3-yl]pyridin-3-yl}phenyl)-5-(1H-1,2,3-triazol-1-ylmethyl)-1,3-oxazolidin-2-one] | 222 to 225 °C
CN(C)C[C@@H]1CC(c2ccc(-c3ccc(N4C[C@H](Cn5ccnn5)OC4=O)cc3F)cn2)=NO1 [Example 1, (5R)-3-[4-(6-{(5S)-5-[(Dimethylamino)methyl]-4,5-dihydroisoxazol-3-yl}pyridin-3-yl)-3-fluorophenyl]-5-(1H-1,2,3-triazol-1-ylmethyl)-1,3-oxazolidin-2-one] | 212 °C
O=C1O[C@@H](Cn2ccnn2)CN1c1ccc(-c2ccc(C3=NO[C@@H](CN4CCOCC4)C3)nc2)c(F)c1 [Example 11, (5R)-3-(3-Fluoro-4-{6-[(5R)-5-(morpholin-4-ylmethyl)-4,5-dihydroisoxazol-3-yl]pyridin-3-yl}phenyl)-5-(1H-1,2,3-triazol-1-ylmethyl)-1,3-oxazolidin-2-one] | 239 to 245 °C

Next, values leading:

melting point | Structure (SMILES)
135 to 145 °C | CN(CC(=O)O)CC(=O)N(C)C[C@@H]1CC(c2ccc(-c3ccc(N4C[C@H](Cn5ccnn5)OC4=O)cc3F)cn2)=NO1 [Example 24, N-{2-[{[(5S)-3-(5-{2-Fluoro-4-[(5R)-2-oxo-5-(1H-1,2,3-triazol-1-ylmethyl)-1,3-oxazolidin-3-yl]phenyl}pyridin-2-yl)-4,5-dihydroisoxazol-5-yl]methyl}(methyl)amino]-2-oxoethyl}-N-methylglycine]
242 to 244 °C | C[C@H](N)C(=O)NC[C@@H]1CC(c2ccc(-c3ccc(N4C[C@H](Cn5ccnn5)OC4=O)cc3F)cn2)=NO1 (as salt: hydrochloride) [Example 22, N^1-{[(5S)-3-(5-{2-fluoro-4-[(5R)-2-oxo-5-(1H-1,2,3-triazol-1-ylmethyl)-1,3-oxazolidin-3-yl]phenyl}pyridin-2-yl)-4,5-dihydroisoxazol-5-yl]methyl}-L-alaninamide hydrochloride]
224 to 226 °C | N[C@@H](CC(=O)O)C(=O)NC[C@@H]1CC(c2ccc(-c3ccc(N4C[C@H](Cn5ccnn5)OC4=O)cc3F)cn2)=NO1 [Example 28, N^1-{[(5S)-3-(5-{2-Fluoro-4-[(5R)-2-oxo-5-(1H-1,2,3-triazol-1-ylmethyl)-1,3-oxazolidin-3-yl]phenyl}pyridin-2-yl)-4,5-dihydroisoxazol-5-yl]methyl}-L-α-asparagine]
239 to 242 °C | O=C1O[C@@H](Cn2ccnn2)CN1c1ccc(-c2ccc(C3=NO[C@H](Cn4ccnc4)C3)nc2)c(F)c1 [Example 26, (5R)-3-(3-Fluoro-4-{6-[(5S)-5-(1H-imidazol-1-ylmethyl)-4,5-dihydroisoxazol-3-yl]pyridin-3-yl}phenyl)-5-(1H-1,2,3-triazol-1-ylmethyl)-1,3-oxazolidin-2-one]
200 to 210 °C | O=C(O)CNCC(=O)NC[C@@H]1CC(c2ccc(-c3ccc(N4C[C@H](Cn5ccnn5)OC4=O)cc3F)cn2)=NO1 [Example 25, N-[2-({[(5S)-3-(5-{2-Fluoro-4-[(5R)-2-oxo-5-(1H-1,2,3-triazol-1-ylmethyl)-1,3-oxazolidin-3-yl]phenyl}pyridin-2-yl)-4,5-dihydroisoxazol-5-yl]methyl}amino)-2-oxoethyl]glycine]
185 to 188 °C | CN(CC(=O)O)CC(=O)NC[C@@H]1CC(c2ccc(-c3ccc(N4C[C@H](Cn5ccnn5)OC4=O)cc3F)cn2)=NO1 [Example 27, N-[2-({[(5S)-3-(5-{2-Fluoro-4-[(5R)-2-oxo-5-(1H-1,2,3-triazol-1-ylmethyl)-1,3-oxazolidin-3-yl]phenyl}pyridin-2-yl)-4,5-dihydroisoxazol-5-yl]methyl}amino)-2-oxoethyl]-N-methylglycine]
